Data from ChEMBL document CHEMBL5543095 (Eur J Med Chem, 2024).

Columns and labels:
A549 = test: Antiproliferative activity against human A549 cells assessed as inhibition of cell growth inhibition incubated for 48 hrs by CCK-8 assay; type: functional, cell-based; conditions: A549, 48 h
[1] = Cytotoxicity against HUVEC cells assessed as inhibition of cell growth inhibition incubated for 48 hrs by CCK-8 assay; type: toxicity, cell-based; conditions: human
U-87 MG [2] = test: Antiproliferative activity against human U87 cells assessed as inhibition of cell growth inhibition incubated for 48 hrs by CCK-8 assay; type: functional, cell-based, U-87MG ATCC
Huh-7 = test: Antiproliferative activity against human Huh-7 cells assessed as inhibition of cell growth inhibition incubated for 48 hrs by CCK-8 assay; type: functional, cell-based; conditions: Huh-7, 48 h
P-gp = test: Substrate activity at P-gp in MDCK-MDR1 cells assessed as efflux ratio of apparent permeability across basolateral to apical side over apical to basolateral side at 10 uM incubated for 90 mins by LC-MS/MS analysis; type: ADME, cell-based, Canis lupus familiaris; conditions: dog
[3] = Apparent permeability across basolateral to apical side in MDCK-MDR1 cells at 10 uM incubated for 90 mins by LC-MS/MS analysis; type: ADME, cell-based, Canis lupus familiaris; conditions: dog
[4] = Apparent permeability across apical to basolateral side in MDCK-MDR1 cells at 10 uM incubated for 90 mins by LC-MS/MS analysis; type: ADME, cell-based, Canis lupus familiaris; conditions: dog
[5] = Toxicity in C57BL/6 mouse implanted with mouse GL261-Luc cells assessed as reduction in body weight at 5 to 10 mg/kg, iv administered every other day on day 0,2,4,6,8,10 and measured after 12 days; type: organism-based; conditions: in vivo, 288 h, dose 5-10 mg/kg, time 12 day
[6] = Toxicity in C57BL/6 mouse implanted with mouse GL261-Luc cells assessed as reduction in body weight at 5 mg/kg, iv administered every other day on day 0,2,4,6,8,10 and measured after 12 days; type: organism-based; conditions: in vivo, 288 h, time 12 day
U-87 MG [7] = test: Induction of cell cycle arrest in human U87 cells assessed as accumulation of cells at […] at 25 nM measured after 48 hrs by PI staining based flow cytometry analysis (reference value: 8.55%); type: functional, U-87MG ATCC
U-87 MG [8] = test: Induction of cell cycle arrest in human U87 cells assessed as accumulation of cells at G1 phase at 25 nM measured after 48 hrs by PI staining based flow cytometry analysis (reference value: 72.6%); type: functional, U-87MG ATCC

Structure (SMILES) | IC50 (A549) [µM] | IC50 at 48 h [1] [µM] | IC50 (U-87 MG [2]) [µM] | IC50 (Huh-7) [µM] | efflux ratio at 1.5 h, 10 µM (P-gp) | Papp B→A at 1.5 h, 10 µM [3] [×10⁻⁶ cm/s] | Papp A→B at 1.5 h, 10 µM [4] [×10⁻⁶ cm/s] | Activity [5] | Activity [6] | Activity (U-87 MG [7]) [%] | Activity (U-87 MG [8]) [%]
COc1ccc(C2C(C#N)=C(N)Oc3c2ccc2ccc(C)nc32)c(OC)c1OC (centres undefined) | 6.16 | > 10 | 5.27 | 4.89 |  |  |  |  |  |  | 
N#CC1=C(N)Oc2c(ccc3cccnc23)C1c1ccc(Cl)c(Cl)c1 (centres undefined) | 4.95 | 8.23 | 6.18 | 2.35 |  |  |  |  |  |  | 
Cc1ccc2ccc3c(c2n1)OC(N)=C(C#N)C3c1ccc(Cl)cc1 (centres undefined) | > 10 | > 10 | 8.08 | 5.31 |  |  |  |  |  |  | 
Cc1ccc(C2C(C#N)=C(N)Oc3c2ccc2ccc(C)nc32)cc1 (centres undefined) | 3.05 | 9.02 | 6.12 | 5.51 |  |  |  |  |  |  | 
N#CC1=C(N)Oc2c(ccc3cccnc23)C1c1ccc(F)cc1 (centres undefined) | > 10 | > 10 | > 10 | > 10 |  |  |  |  |  |  | 
COc1cc(C2C(C#N)=C(N)Oc3c2ccc2ccc(C)nc32)cc(OC)c1Br (centres undefined) | 1.59 | > 10 | 2.87 | 2.6 |  |  |  |  |  |  | 
N#CC1=C(N)Oc2c(cc(Cl)c3cccnc23)C1c1ccc(Cl)c(Cl)c1 (centres undefined) | 6.42 | > 10 | 4.13 | 2.14 |  |  |  |  |  |  | 
Cc1ccc2ccc3c(c2n1)OC(N)=C(C#N)C3c1ccc(F)cc1 (centres undefined) | 3.25 | 7.58 | 7.87 | 2 |  |  |  |  |  |  | 
COc1ccc(C2C(C#N)=C(N)Oc3c2cc(Cl)c2cccnc32)cc1OC (centres undefined) | > 10 | > 10 | > 10 | > 10 |  |  |  |  |  |  | 
CCc1ccc(C2C(C#N)=C(N)Oc3c2ccc2ccc(C)nc32)cc1 (centres undefined) | 2.44 | > 10 | 5.93 | 3.46 |  |  |  |  |  |  | 
N#CC1=C(N)Oc2c(ccc3cccnc23)C1c1ccccc1 (centres undefined) | > 10 | > 10 | > 10 | 2.47 |  |  |  |  |  |  | 
Cc1ccc2ccc3c(c2n1)OC(N)=C(C#N)C3c1ccc(C(C)C)cc1 (centres undefined) | 4.57 | > 10 | 4.28 | 6.34 |  |  |  |  |  |  | 
N#CC1=C(N)Oc2c(ccc3cccnc23)C1c1ccc(Br)cc1 (centres undefined) | > 10 | > 10 | > 10 | > 10 |  |  |  |  |  |  | 
C[C@H]1O[C@@H](O[C@H]2[C@@H](O)C[C@H](O[C@H]3[C@@H](O)C[C@H](O[C@H]4CC[C@@]5(C)[C@H](CC[C@@H]6[C@@H]5C[C@@H](O)[C@]5(C)[C@@H](C7=CC(=O)OC7)CC[C@]65O)C4)O[C@@H]3C)O[C@@H]2C)C[C@H](O)[C@@H]1O [DIGOXIN] |  |  |  |  | 36.9 | 18 | 0.49 |  |  |  | 
Cc1ccc(C2C(C#N)=C(N)Oc3c2ccc2cccnc32)cc1 (centres undefined) | > 10 | > 10 | > 10 | > 10 |  |  |  |  |  |  | 
N#CC1=C(N)Oc2c(cc(Cl)c3cccnc23)C1c1ccccc1 (centres undefined) | 9.66 | > 10 | 4.38 | 0.3 |  |  |  |  |  |  | 
CC[C@@]1(O)C(=O)OCc2c1cc1n(c2=O)Cc2cc3cc(O)ccc3nc2-1 [HYDROXYCAMPTOTHECIN] | 0.12 | 0.92 | 2.92 | 1.35 |  |  |  |  |  |  | 

Structure (SMILES) | IC50 (A549) [µM] | IC50 at 48 h [1] [µM] | IC50 (U-87 MG [2]) [µM] | IC50 (Huh-7) [µM] | efflux ratio at 1.5 h, 10 µM (P-gp) | Papp B→A at 1.5 h, 10 µM [3] [×10⁻⁶ cm/s] | Papp A→B at 1.5 h, 10 µM [4] [×10⁻⁶ cm/s] | Activity [5] | Activity [6] | Activity (U-87 MG [7]) [%] | Activity (U-87 MG [8]) [%]
Cn1nnc2c(C(N)=O)ncn2c1=O [TEMOZOLOMIDE] |  |  |  |  | 1.04 | 31.8 | 30.6 | Non-Toxic | Non-Toxic |  | 
N#CC1=C(N)Oc2c(cc(Cl)c3cccnc23)C1c1ccc(Cl)cc1 (centres undefined) | > 10 | 7.65 | > 10 | 4.57 |  |  |  |  |  |  | 
COc1ccc(C2C(C#N)=C(N)Oc3c2ccc2cccnc32)cc1OC (centres undefined) | > 10 | > 10 | > 10 | 2.95 |  |  |  |  |  |  | 
Cc1ccc2ccc3c(c2n1)OC(N)=C(C#N)C3c1ccc(Cl)c(Cl)c1 (centres undefined) | 1.24 | 8.17 | 1.98 | 1.25 |  |  |  |  |  |  | 
COc1ccc(C2C(C#N)=C(N)Oc3c2ccc2ccc(C)nc32)cc1OC (centres undefined) | > 10 | > 10 | 4.85 | > 10 |  |  |  |  |  |  | 
Cc1ccc2ccc3c(c2n1)OC(N)=C(C#N)C3c1cccc(Cl)c1Cl (centres undefined) | > 10 | > 10 | 3.69 | 2.22 |  |  |  |  |  |  | 
COc1cc(OC)c(C2C(C#N)=C(N)Oc3c2ccc2ccc(C)nc32)cc1OC (centres undefined) | 8.13 | 7.87 | 4.68 | 4.64 |  |  |  |  |  |  | 
Cc1ccc2ccc3c(c2n1)OC(N)=C(C#N)C3c1ccc(Br)cc1 (centres undefined) | 8.12 | > 10 | > 10 | > 10 |  |  |  |  |  |  | 
Cc1ccc(C2C(C#N)=C(N)Oc3c2cc(Cl)c2cccnc32)cc1 (centres undefined) | > 10 | > 10 | > 10 | > 10 |  |  |  |  |  |  | 
N#CC1=C(N)Oc2c(ccc3cccnc23)C1c1ccc(Cl)cc1 (centres undefined) | > 10 | > 10 | > 10 | > 10 |  |  |  |  |  |  | 
N#CC1=C(N)Oc2c(cc(Cl)c3cccnc23)C1c1ccc(Br)cc1 (centres undefined) | > 10 | > 10 | > 10 | > 10 |  |  |  |  |  |  | 
CC(C)c1ccc(C2C(C#N)=C(N)Oc3c2ccc2cccnc32)cc1 (centres undefined) | > 10 | > 10 | > 10 | > 10 |  |  |  |  |  |  | 
COc1cc2c(c(OC)c1OC)-c1ccc(OC)c(=O)cc1[C@@H](NC(C)=O)CC2 [COLCHICINE] |  |  |  |  |  |  |  |  |  | 46.5 | 19.7
CC(C)c1ccc(C2C(C#N)=C(N)Oc3c2cc(Cl)c2cccnc32)cc1 (centres undefined) | > 10 | > 10 | > 10 | > 10 |  |  |  |  |  |  | 
N#CC1=C(N)Oc2c(cc(Cl)c3cccnc23)C1c1ccc(F)cc1 (centres undefined) | > 10 | > 10 | > 10 | > 10 |  |  |  |  |  |  | 
COc1ccc(C2C(C#N)=C(N)Oc3c2ccc2cccnc32)c(OC)c1OC (centres undefined) | > 10 | > 10 | > 10 | > 10 |  |  |  |  |  |  | 
COc1ccc(C2C(C#N)=C(N)Oc3c2cc(Cl)c2cccnc32)c(OC)c1OC (centres undefined) | > 10 | > 10 | > 10 | > 10 |  |  |  |  |  |  | 
